From US20200255492A1, “LEPTIN PEPTIDES AND THEIR USE FOR TREATING NEUROLOGICAL DISORDERS” (UNIVERSITY OF DUNDEE, priority 2017, published 2020) come the findings set out here.

For experiment [1], the system named is tau in hippocampal neurons. Nature of the experiment: Immunocytochemistry of endogenous tau and tau/PSD-95 co-localization. It counts as cell-based, Sprague-Dawley rats. The settings on record: for % co-localization of tau and PSD-95 in Aβ1-42-treated neurons / relative tau intensity in Aβ1-42-treated neurons: Aβ1-42 1 μM plus leptin/fragment 10 nM or SB216763 100 nM. The procedure:
Hippocampal cultures were prepared as previously (Moult et al, 2010). Neonatal Sprague-Dawley rats (1-3 d old) were […] killed by cervical dislocation in accordance with the UK Animals (Scientific Procedures Act) 1986 legislation. Hippocampi were removed, and after washing in HEPES-buffered saline comprising (mM) 135 NaCl; 5 KCl; 1 CaCl2; 1 MgCl2; 10 HEPES; and 25 D-glucose at […], were treated with papain (1.5 mg ml21; Sigma-Aldrich) for 20 min at 37° C. Dissociated cells were plated onto sterile dishes (35 mm diameter; Greiner Bio-One, Kremsmun-ster, Austria) treated with poly-D-lysine (20 μg ml^−1; 1-2 h). Cultures were maintained in serum replacement medium (SR2; Sigma-Aldrich) in a humidified atmosphere of 5% CO2 and […] at 37° C. for up to 2 wk.
Immunocytochemistry was conducted on primary hippocampal cultures (7-14 DIV). Prior to labelling with antibodies, neurons were washed with HBS containing glycine (0.01 mM) and incubated with agents for 1 h at room temperature. Cultures were fixed with 4% paraformaldehyde for 5 min, then permeabilized with 0.1% Triton X-100 for 5 min. To label endogenous tau, neurons were incubated with a rabbit anti-tau (Ab-217; Genscript) primary antibody (1:200 dilution) at room temperature for 30 min, followed by incubation with an Alexa Fluor555 donkey anti-rabbit (1:250, Invitrogen) secondary antibody for an additional 30 min duration. To assess the % co-localisation of tau at synapses, neurons were dual labelled with an antibody against the synaptic marker, PSD-95 (mouse anti-PSD-95; 1:500, Thermo Fisher) followed by application of an Alexa Fluor488 goat anti-mouse secondary antibody (1:500, Invitrogen).
A Zeiss LSM510 confocal microscope was used for image acquisition and analysis. Images were obtained using a 10-s scan speed in single tracking mode or multi-tracking mode for dual labelling experiments. The intensity of immunostaining was measured off-line using Lasersharp software (Zeiss Lasersharp), whereby analysis lines of 50 μm length were drawn along randomly selected dendritic regions. All data were obtained from at least three different cultures from different animals. Imaging conditions including illumination intensity and photomultiplier gains were kept constant between treatments for each experiment. In addition, data were normalised relative to the mean fluorescence intensity obtained from control neurons. For synaptic co-localisation experiments, tau and PSD-95 positive immunostaining were compared. The number of tau-positive sites that co-localized with PSD-95 positive sites were counted and expressed as a percentage of total positive sites (peaks of intensity).

Experiment [2] deals with juvenile hippocampal slices. Nature of the experiment: HFS-induced synaptic plasticity and its inhibition by Aβ1-42. It counts as cell-based, Sprague Dawley rats. The note with it: for synaptic transmission after HFS in slices exposed to Aβ1-42: 25 nM before Aβ1-42. The procedure: Parasagittal hippocampal slices (300 μm) were prepared from either P13-21 or 12-24-week-old male Sprague Dawley rats as previously (Moult et al. 2010). Brains were rapidly removed and placed in ice-cold artificial CSF (aCSF; bubbled with 95% O2 and 5% CO2) containing the following (in mm): 124 NaCl, 3 KCl, 26 NaHCO3, 1.25 NaH2PO4, 2 CaCl2, 1 MgSO4, and 10 d-glucose. Once prepared, parasagittal slices were allowed to recover at room temperature in oxygenated aCSF for 1 h before use. Slices were transferred to a submerged chamber maintained at room temperature and perfused with artificial cerebrospinal fluid at 2 ml min^−1. Standard extracellular recordings were used to monitor evoked field excitatory postsynaptic potentials (fEPSP) from stratum radiatum. The Schaffer collateral-commissural pathway was stimulated (constant voltage; 0.1 ms) at 0.033 Hz, using a stimulus intensity that evoked a peak amplitude ˜50% of the maximum. Synaptic potentials were low pass filtered at 2 kHz and digitally sampled at 10 kHz. The fEPSP slope was measured and expressed relative to baseline. Synaptic records are the average of 4 consecutive responses and stimulus artefacts are blanked for clarity. Recordings were made using an Axopatch 200B amplifier and analyzed using LTP v2.4 software. In synaptic plasticity studies, the degree of potentiation was calculated 30-35 min after HFS and expressed as a percentage of baseline±standard error of mean (SEM).
Several studies indicate that soluble Aβ oligomers impair activity-dependent synaptic plasticity, as exposure to Aβ inhibits hippocampal LTP (Shankar et al. 2008; Li et al. 2009) and enhances LTD (Shankar et al. 2008). Moreover, our recent studies indicate that leptin reverses the detrimental effects of Aβ1-42 on both LTP and LTD (Doherty et al. 2013). Thus we assessed if either of the fragments mirrored the protective actions of leptin on hippocampal synaptic plasticity. Initially we determined that application of leptin prevented the acute effects of Aβ1-42 on LTP. In control slices, synaptic plasticity was induced using high frequency stimulation (HFS; 100 Hz 10 trains of 8 stimuli) which increased synaptic transmission to 127±3.4% of baseline (n=8; P<0.01).

Consider “Aβ1-42: amyloid beta 1-42, toxin used in the AD models [reference compound]”, for which, in experiment [1] (1 μM), the “% co-localization of tau and PSD-95, Aβ peptide alone” value is “increases % co-localization between endogenous tau and PSD-95”; the “relative tau intensity at dendrites, Aβ peptide alone” value is reported as “increased endogenous tau expression compared to control”. Moreover, the “synaptic transmission after HFS, Aβ peptide alone” value in experiment [2] (control slices 127±3.4%, 40 min) is reported as 96±7.5 % of baseline.
Turning to “SCSLPQTSGLQKPES (listed as Mus musculus) [leptin (116-130)]”, in experiment [1], the “% co-localization of tau and PSD-95 in Aβ1-42-treated neurons” value is given as “prevented Aβ1-42-driven movement of tau to synapses”; the “relative tau intensity in Aβ1-42-treated neurons” value is on record as “reducing dendritic tau levels”. Moreover, the “synaptic transmission after HFS in slices exposed to Aβ1-42” value (from here on “synaptic transmission … to Aβ1-42”) in experiment [2] is 136±5.5 % of baseline.
As for “leptin (22-56): leptin fragment amino acids 22-56 (Bachem), comparison fragment (VPIQKVQDDTKTLIKTIVTRINDISHTQSVSSKQK; UniProt P41159 22-56, looked up, fragment) [reference compound]”, in experiment [2], the “synaptic transmission … to Aβ1-42” value is reported as 107±3.3 % of baseline.
Take “leptin: the metabolic hormone leptin, whole (full length) leptin molecule; human leptin from Sigma in SH-SY5Y work”: in experiment [1], the “% co-localization of tau and PSD-95 in Aβ1-42-treated neurons” value is “prevented the Aβ1.42-driven movement of tau to synapses”; the “relative tau intensity in Aβ1-42-treated neurons” value is recorded as “reducing the dendritic levels of tau to near control levels”. Besides, the “synaptic transmission … to Aβ1-42” value in experiment [2] was 135±6.3 % of baseline.
